Measured values as given in ChEMBL document CHEMBL1201862, “PubChem BioAssay data set” (2004).
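96-well plates; 48 h exposure; 5 concentrations. Endpoints by linear interpolation between flanking doses. Not reached: highest tested concentration assigned. The concentration for 50% growth inhibition is given as GI50.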 The source made the active and inactive calls. Cut-off read from the data, not from the text of the source: active = GI50 up to about 1.1 µM and inactive = higher.

How the values were obtained:
Assay in all cases: NCI anticancer screen, dose series, 48 h
A498 = system: A498
PC-3 = system: PC-3
SR = system: SR
M14 = system: M14
A549 = system: A549
SF-295 = system: SF-295
HCT-116 = system: HCT-116
DU-145 = system: DU-145
SK-MEL-5 = system: SK-MEL-5
MCF7 = system: MCF7
SK-MEL-28 = system: SK-MEL-28
OVCAR-3 = system: OVCAR-3
HT-29 = system: HT-29
UACC-257 = system: UACC-257
UO-31 = system: UO-31
HOP-92 = system: HOP-92
HOP-62 = system: HOP-62
KM12 = system: KM12
SF-268 = system: SF-268
SN12C = system: SN12C
NCI/ADR-RES = system: NCI/ADR-RES
HCT-15 = system: HCT-15
SK-MEL-2 = system: SK-MEL-2
UACC-62 = system: UACC-62
NCI-H23 = system: NCI-H23
NCI-H522 = system: NCI-H522
786-0 = system: 786-0
SF-539 = system: SF-539
HCC 2998 = system: HCC 2998
BT-549 = system: BT-549
NCI-H460 = system: NCI-H460
OVCAR-5 = system: OVCAR-5
MOLT-4 = system: MOLT-4
HL-60 = system: HL-60
MDA-MB-435 = system: MDA-MB-435
SNB-75 = system: SNB-75
Hs-578T = system: Hs-578T
T47D = system: T47D
ACHN = system: ACHN
IGROV-1 = system: IGROV-1
SW-620 = system: SW-620
OVCAR-8 = system: OVCAR-8
OVCAR-4 = system: OVCAR-4
K562 = system: K562
U-251 = system: U-251
TK-10 = system: TK-10
SNB-19 = system: SNB-19
RXF 393 = system: RXF 393
MDA-N = system: MDA-N
EKVX = system: EKVX
LOX IMVI = system: LOX IMVI
COLO 205 = system: COLO 205
CAKI-1 = system: CAKI-1
MDA-MB-231 = system: MDA-MB-231
CCRF-CEM = system: CCRF-CEM
NCI-H226 = system: NCI-H226
SK-OV-3 = system: SK-OV-3
Malme-3M = system: Malme-3M

Measured: GI50

CN(C(=O)C12C3(C(=O)O)C4C5(C(=O)O)C3C1(C(=O)O)C5C42C(=O)O)C(C)(C)C (configuration not stated)
inactive: A498 > 100000 nM | PC-3 > 100000 nM | SR > 100000 nM | M14 > 100000 nM | A549 > 100000 nM | SF-295 > 100000 nM | HCT-116 > 100000 nM | DU-145 > 100000 nM | SK-MEL-5 > 100000 nM | MCF7 > 100000 nM | SK-MEL-28 > 100000 nM | OVCAR-3 > 100000 nM | HT-29 > 100000 nM | UACC-257 > 100000 nM | UO-31 > 100000 nM | HOP-92 > 100000 nM | HOP-62 > 100000 nM | KM12 > 100000 nM | SF-268 > 100000 nM | SN12C > 100000 nM | NCI/ADR-RES > 100000 nM | SK-MEL-2 > 100000 nM | UACC-62 > 100000 nM | NCI-H23 > 100000 nM | NCI-H522 > 100000 nM | 786-0 > 100000 nM | SF-539 > 100000 nM | HCC 2998 > 100000 nM | BT-549 > 100000 nM | NCI-H460 > 100000 nM | OVCAR-5 > 100000 nM | MOLT-4 > 100000 nM | HL-60 > 100000 nM | MDA-MB-435 > 100000 nM | Hs-578T > 100000 nM | T47D > 100000 nM | ACHN > 100000 nM | IGROV-1 > 100000 nM | SW-620 > 100000 nM | OVCAR-8 > 100000 nM | OVCAR-4 > 100000 nM | K562 > 100000 nM | U-251 > 100000 nM | TK-10 > 100000 nM | SNB-19 > 100000 nM | RXF 393 > 100000 nM | MDA-N > 100000 nM | EKVX > 100000 nM | LOX IMVI > 100000 nM | COLO 205 > 100000 nM | CAKI-1 > 100000 nM | MDA-MB-231 > 100000 nM | CCRF-CEM > 100000 nM
> 100000 nM: HCT-15
active: SNB-75 442 nM

COc1cccc2c1C(=O)c1c(O)c3c(c(O)c1C2=O)CC(O)(C(O)CO)CC3OC1CC2C(OC3COCC(C#N)N32)C(C)O1 (configuration not stated)
< 10 nM: HCT-15
active: A498 < 10 nM | PC-3 < 10 nM | SR < 10 nM | M14 < 10 nM | A549 < 10 nM | SF-295 < 10 nM | HCT-116 < 10 nM | DU-145 < 10 nM | SK-MEL-5 < 10 nM | MCF7 < 10 nM | NCI-H226 < 10 nM | SK-MEL-28 < 10 nM | OVCAR-3 < 10 nM | HT-29 < 10 nM | UACC-257 < 10 nM | UO-31 < 10 nM | HOP-92 < 10 nM | HOP-62 < 10 nM | KM12 < 10 nM | SF-268 < 10 nM | SN12C < 10 nM | NCI/ADR-RES < 10 nM | SK-MEL-2 < 10 nM | UACC-62 < 10 nM | NCI-H23 < 10 nM | NCI-H522 < 10 nM | 786-0 < 10 nM | SF-539 < 10 nM | HCC 2998 < 10 nM | BT-549 < 10 nM | NCI-H460 < 10 nM | OVCAR-5 < 10 nM | MOLT-4 < 10 nM | HL-60 < 10 nM | MDA-MB-435 < 10 nM | SNB-75 < 10 nM | Hs-578T < 10 nM | T47D < 10 nM | ACHN < 10 nM | SK-OV-3 < 10 nM | IGROV-1 < 10 nM | SW-620 < 10 nM | OVCAR-8 < 10 nM | OVCAR-4 < 10 nM | K562 < 10 nM | Malme-3M < 10 nM | U-251 < 10 nM | TK-10 < 10 nM | SNB-19 < 10 nM | RXF 393 < 10 nM | MDA-N < 10 nM | EKVX < 10 nM | LOX IMVI < 10 nM | COLO 205 < 10 nM | MDA-MB-231 < 10 nM | CCRF-CEM < 10 nM
